According to patent US20110160303A1, “N-ALKYLCARBONYL-AMINO ACID ESTER AND N-ALKYLCARBONYL-AMINO LACTONE COMPOUNDS AND THEIR USE” (Edward Tak WEI, priority 2005, published 2011):

Columns and labels:
oral cavity = assay: Oral cavity test, substance placed on dorsal surface of the tongue; format: in vivo, human; details: Study 7, 2 mg per dose
Description: The subject is instructed to close and hold the substance in the mouth for at least 10 seconds and not to swallow. The description of sensations is then recorded at 5 minute intervals.
The compounds of Formula (1) and (2) are white crystalline solids at room temperatures. These compounds were tested as such, or mixed 1:1 with powdered or granulated sugar. The test substances were applied at 1 to 5 mg on the mid-point of the dorsal surface of the tongue using a metal spatula or a plastic applicator. After depositing the test substance on the tongue, the subject was instructed to keep the mouth closed and allow the fluids of the mouth to inter-mix with the test substance and to distribute it to the back of the mouth (oropharynx). The presence and duration of subjective sensations from the mouth was then noted.
In normal subjects, the effects of the D-Ala methyl and ethyl ester compounds falling within Formula (1) ((R)-2-[((1R,2S,5R)-2-isopropyl-5-methyl-cyclohexanecarbonyl)-amino]-propionic acid methyl or ethyl ester)) were examined. Three doses of 1, 2 and 4 mg per application were examined and compared to a similar dose of the L-Ala methyl or ester analog ((S)-2-[((1R,2S,5R)-2-isopropyl-5-methyl-cyclohexanecarbonyl)-amino]-propionic acid methyl or ethyl ester). At the 2 or 4 mg dose, all compounds produced pleasant and robust cooling sensations on the tongue, extending down to the back of throat, and lasted for about 30 minutes and longer. The onset effect was usually within 30 seconds of application.

skin above the upper lip = assay: Cooling sensation on facial skin, ointment applied to skin above the upper lip; format: in vivo, human; set-up: key to refreshing cooling and absence of skin irritation or eye irritation (“perfect cool”): (*) denotes compounds with refreshing cooling and absence of skin irritation or eye irritation after facial skin or periorbital applications; a “perfect cool.”; details: for Duration of Skin Cooling: 40 mM (1% wt/vol) ointment; for Duration of Skin Cooling / Duration of Action On-Off (minutes): On (onset) / Duration of Action On-Off (minutes): duration (offset minus onset) / Duration of Action On-Off (minutes): Off (offset): skin above upper lip; for Duration of Action On-Off (minutes): On (onset): 40 mM (~1% wt/vol) Aquaphor ointment, 40 to 70 mg, time to reach 2 units of coolness; for Duration of Action On-Off (minutes): duration (offset minus onset) / Duration of Action On-Off (minutes): Off (offset): 40 mM Aquaphor ointment; for Duration of Action On-Off (minutes): Off (offset): time when coolness drops below 2 units; for refreshing cooling and absence of skin irritation or eye irritation (“perfect cool”): after facial skin or periorbital applications
Source text: A reliable place for topical application is the skin above the upper lip (above the vermilion border of the lips), on the philtrum, lateral to the philtrum until the nasolabial folds, and on the lower nostrils (subnasale). This part of the face is known to be densely innervated with cold receptors, second only to the surfaces of the eyeball and anogenitalia. A second location is on or below the malar eminence (cheekbone). The skin above the cheekbone is thicker than above the lips, and therefore has a higher threshold for activation. At both loci, tingling, cool and cold sensations in the skin may be experienced and rated for time of onset and intensity.
The intensity of the subjective skin sensation is rated as 0, 1, 2 or 3 with: 0 as no change; 1 as slight coolness, cold, or tingling; 2 as clear-cut signal of coolness, cold, or tingling; and 3 as robust cooling or cold. The intervals for recording sensations are 5 to 10 minutes, until two successive zeroes are obtained. The results (shown in FIGS. 1 and 2) are averaged values of 4 to 6 separate trials in the same individual. The data are plotted using SigmaPlot® (Systat Software, Point Richmond Calif.) and a smoothing function with a negative exponential was used for analysis and statistical fit of the results. Confirmatory trials of cooling action of the long-acting NACE compounds were obtained in 2 to 4 individuals but not quantified for some because of the large number of chemicals that were evaluated.
(§1) The onset of drug action is taken as the time to reach 2 units of coolness intensity, and offset of drug action is the time when coolness intensity drops below 2, after previously surpassing 2 units. The duration of cooling action is defined as the offset time minus the onset time. […] The quality of the sensation is noted, for example, as pure refreshing coolness, or if the sensation is accompanied by irritation (stinging or burning). The quality of the sensation is not rated for intensity.
For bioassay on the skin, approximately 30 mg was stirred and dissolved in 3 g of warm liquid Aquaphor® ointment to a yield a 40 mM (˜1% wt/vol) ointment. The exact amount was adjusted so that the molar equivalent was about 35 to 40 mM. After cooling, 40 to 70 mg of the solid ointment was placed on the tip of a plastic stick and applied to the skin above the upper lip, on the philtrum, and lateral to the philtrum, up to the nasolabial folds, of test subjects and the onset and duration of cooling sensations noted.
The intensity of the subjective skin sensation was rated as 0, 1, 2 or 3 with: 0 as no change; 1 as slight coolness, cold, or tingling; 2 as clear signal of coolness, cold, or tingling; and 3 as robust cooling or cold. The intervals for recording sensations were 5 to 10 minutes, until two successive zeroes were obtained. The results (shown in FIGS. 1 and 2) are averaged values of 4 to 6 separate trials in the same individual. The data are plotted using SigmaPlot® (Systat Software, Point Richmond, Calif., USA) and a smoothing function with a negative exponential was used for analysis and statistical fit of the results.
as §1, with “was” for “is”, “was also noted: such” for “is noted, for example,”
Test compounds were singly applied to the skin above the upper lips at a 40 to 70 mg dose of a 1% wt/vol ointment.

[1] = Octanol/water partition coefficient; format: physicochemical
Description: The octanol/water partition coefficients (given in log P units) for a number of compounds were determined and are shown in Table 7, together with the threshold for cooling on the tongue tested at 40 mM. […] A longer duration of action was not precisely matched with log P values.

tongue = assay: Threshold for cooling on the tongue; format: in vivo, human; details: threshold for cooling on the tongue
Description: Watson et al. (U.S. Pat. No. 4,178,459) tested the properties of N-substituted p-menthane carboxamides on volunteers by putting filter paper (1×1 cm), impregnated with a known amount of compound, onto the dorsal surface of the tongue of the test subject. After 30 seconds, the subject was required to report presence or absence of a cooling effect. […] The average threshold of (−)-menthol for 6 subjects was 0.25 μg, but there was a 100-fold variation in individual sensitivity. As noted above, coolness signals detected from the dorsal surface of the tongue may be confounded by gustatory, olfactory, and other variables, as well as by dilution from saliva. The octanol/water partition coefficients (given in log P units) for a number of compounds were determined and are shown in Table 7, together with the threshold for cooling on the tongue tested at 40 mM. […] A longer duration of action was not precisely matched with log P values.

Row | SMILES | cooling sensation at the back of the throat (oral cavity) | Duration of Skin Cooling (skin above the upper lip) | Duration of Action On-Off (minutes): On (onset) (skin above the upper lip) [min] | Duration of Action On-Off (minutes): duration (offset minus onset) (skin above the upper lip) | Duration of Action On-Off (minutes): Off (offset) (skin above the upper lip) [min] | refreshing cooling and absence of skin irritation or eye irritation (“perfect cool”) (skin above the upper lip) | logP [1] | Log P [1] | Threshold tongue (tongue) [µg]
1 | CC(C)[C@@H]1CC[C@@H](C)C[C@H]1C(=O)NC1CCOC1=O (mixture of isomers) [racemic Hsl, (1R,2S,5R)-2-isopropyl-5-methyl-cyclohexanecarboxylic acid (2-oxo-tetrahydro-furan-3-yl)-amide] | robust and prolonged cooling | 1.4 h | 2 | 84 min | 86 | racemic Hsl (*) | 2.5 |  | 
2 | CCOc1ccc(NC(=O)C2CC(C)CCC2C(C)C)cc1 (stereo not drawn) [CPS-306] |  | not active |  | inactive |  |  |  | 5.8 | 
3 | CCCCOc1ccc(NC(=O)C2CC(C)CCC2C(C)C)cc1 (stereo not drawn) [CPS-308] |  | not active |  | inactive |  |  |  | 6.9 | 
4 | COc1ccc(NC(=O)C2CC(C)CCC2C(C)C)c(OC)c1 (stereo not drawn) [CPS-309] |  | 0.6 h | 13 | 37 min | 50 |  |  | 5.0 | 
5 | CCCOc1ccc(NC(=O)C2CC(C)CCC2C(C)C)cc1 (stereo not drawn) [CPS-310] |  | not active |  | inactive |  |  |  | 6.3 | 
6 | CC(C)[C@@H]1CC[C@@H](C)C[C@H]1C(=O)N[C@@H]1CCOC1=O [D-Hsl, (1R,2S,5R)-2-isopropyl-5-methyl-cyclohexanecarboxylic acid ((R)-2-oxo-tetrahydro-furan-3-yl)-amide] | robust and prolonged cooling | 1.3 h | 2 | 78 min | 80 | D-Hsl (*) | 2.5 |  | 
7 | COC(=O)CCC(NC(=O)C1CC(C)CCC1C(C)C)C(=O)OC (stereo not drawn) [Glu(OMe) Me Ester] |  | not active |  | not active |  |  |  | 2.2 | 
8 | COC(=O)CNC(=O)C1CC(C)CCC1C(C)C (stereo not drawn) [Gly Me Ester (WS-31), reference compound] |  | 0.3 h | 5 | 20 min | 25 |  |  | 2.4 | 0.6
9 | CCOC(=O)C(C)NC(=O)C1CC(C)CCC1C(C)C [L-Ala Et Ester] |  | 0.7 h | 8 | 44 min | 52 |  |  | 3.1 | 0.4
10 | COC(=O)C(C)NC(=O)C1CC(C)CCC1C(C)C [L-Ala Me Ester] |  | 1.3 h | 1 | 79 min | 80 |  |  | 2.8 | 0.6
11 | CC(C)[C@@H]1CC[C@@H](C)C[C@H]1C(=O)N[C@H]1CCOC1=O [L-Hsl, (1R,2S,5R)-2-isopropyl-5-methyl-cyclohexanecarboxylic acid (S)-(2-oxo-tetrahydro-furan-3-yl)-amide] | robust and prolonged cooling | 1.4 h | 2 | 85 min | 87 | L-Hsl (*) | 2.5 |  | 
12 | COC(=O)C(NC(=O)C1CC(C)CCC1C(C)C)C(C)C [L-Val Me Ester] |  | not active |  | not active |  |  |  | 4.2 | 
13 | COC(=O)C1CCCN1C(=O)[C@@H]1C[C@H](C)CC[C@H]1C(C)C (stereo partly drawn) [Pro Me Ester] |  | not active |  | not active |  |  | 3.3 |  | 
14 | CC1CCC(C(C)C)C(C(=O)NC(C)C)C1 (stereo not drawn) [WS-10, reference compound] |  | 0.3 h | 6 | 19 min | 25 |  |  | 4.1 | 0.4
15 | CCC(C)NC(=O)C1CC(C)CCC1C(C)C (stereo not drawn) [WS-34, reference compound] |  | not active |  | inactive |  |  |  | 4.6 | 0.7
16 | CCOC(=O)CCNC(=O)C1CC(C)CCC1C(C)C (stereo not drawn) [β-Ala Et Ester] |  | 1.4 h | 3 | 87 min | 90 |  |  | 3.1 | 1.5
